Source: paper PMC11813147, “Bioactivity assessment of peptides derived from salted jellyfish (Rhopilema hispidum) byproducts” (PLOS ONE, 2025)

Experiments:
[1] = DPPH radical scavenging assay; assay type: biochemical; details: supplement tables; for DPPH, mean±SD: n = 3
Experimental: The DPPH radical scavenging activity of the sample was assessed following a modified protocol based on a previous study. In each well of a 96-well plate, 10 μL of the sample was added, followed by 190 μL of 0.1 mM DPPH solution in 70% ethanol. The mixture was then incubated at room temperature in the dark for 30 min. After the incubation period, the absorbance of the mixture was measured at 517 nm. The DPPH radical scavenging activity was calculated using the following equation (1):
DPPHradicalscavengingactivity%=Acontrol–Asample/Acontrol×100 (1)
In this equation, Acontrol represents the absorbance of a control solution containing all reagents except for the test samples, while Asample is the absorbance of the mixture (the sample combined with 0.1 mM DPPH). To determine the Trolox equivalent antioxidant capacity (TEAC), a Trolox standard curve was utilized. The results were expressed as millimoles of Trolox equivalents per milligram of protein (mM TE/mg protein).

[2] = ABTS radical scavenging assay; assay type: biochemical; details: supplement tables; for ABTS, mean±SD: n = 3
Experimental: The ABTS radical scavenging activity of the sample was measured using a method adapted from Mirzaei et al.. The ABTS radical was generated by mixing 7 mM ABTS with 2.45 mM potassium persulfate in a 1:1 ratio and incubating the mixture in the dark at room temperature for 12 to 16 h. The resulting solution was then diluted to achieve an absorbance of 0.74 ± 0.03 at 734 nm, using deionized water for adjustments. Next, 10 μL of the sample was added to 190 μL of the ABTS solution. The mixture was incubated in the dark for 7 min, after which the absorbance was measured at 734 nm. The ABTS radical scavenging activity (%) was calculated using the following equation (2):
ABTSradicalscavengingactivity%=Acontrol–Asample/Acontrol×100 (2)
In this equation, Acontrol refers to the absorbance of the control solution (which contains all reagents except the test samples), while Asample refers to the absorbance of the mixture containing the sample and the ABTS solution. To determine the Trolox equivalent antioxidant capacity (TEAC), a Trolox standard curve was used, and the results were expressed as millimoles of Trolox equivalents per milligram of protein (mM TE/mg protein).

[3] = Ferric reducing antioxidant power (FRAP) assay; assay type: biochemical
Experimental: The FRAP assay was conducted following the method outlined by Rumpf et al.. The FRAP solution was prepared by mixing 300 mM acetate buffer (pH 3.6), 10 mM TPTZ (2,4,6-Tris(2-pyridyl)-s-triazine) in 40 mM hydrochloric acid, and 20 mM FeCl3 in a ratio of 10:1:1. In a 96-well plate, 10 μL of the sample was combined with 190 μL of the FRAP solution and incubated in the dark for 15 min. The absorbance of the mixture was then measured at 593 nm. FeSO4 was used to create the standard curve, and the results were expressed as millimoles of FeSO4 equivalent per milligram of protein (mM FeSO4/mg protein).

RAW 264.7 [4] = assay: Anti-inflammation assay: released NO in LPS-stimulated RAW 264.7 (Griess); assay type: cell-based, Murine; details: then 1 µg/mL LPS 24 h; for Released NO: peptide 10 µg/mL 1 h; for Released NO, mean±SD: peptide 10 µg/mL pre-treatment 1 h, Griess reagent, n = 3
Experimental: (§1) Murine macrophage cells (RAW 264.7; ATCC TIB-71™) were cultured in Dulbecco’s Modified Eagle’s Medium (DMEM) that was supplemented with 10% heat-inactivated fetal bovine serum (FBS) and 1% antibiotic solution. Colorectal adenocarcinoma cells (CaCo-2; ATCC HTB 37™) were cultured in Eagle’s Minimum Essential Medium (EMEM), also supplemented with 10% heat-inactivated FBS and 1% antibiotic solution. Both cell types were maintained in a humidified incubator with 5% CO2. The cell culture medium was refreshed every three days.
The anti-inflammation assay was conducted following the method described by Barzkar et al. with slight modifications. RAW 264.7 (1 x 10^5 cells) was seeded into a 96-well plate to allow for cell attachment. After 24 h, the cells were pre-treated with fresh medium containing peptide samples at a concentration of 10 µg/mL for 1 h. Subsequently, the treated cells were stimulated with 1 µg/mL lipopolysaccharide (LPS) for an additional 24 h. Unstimulated cells were included as a negative control. At the end of the treatment period, the conditioned medium was collected for the determination of released nitric oxide (NO). Griess’s reagent (Promega) was utilized to measure the NO concentration, following the manufacturer’s instructions. A NO calibration curve was generated to quantify the released NO in the conditioned medium.

RAW 264.7 [5] = assay: Cytotoxicity assessment (MTT); assay type: cell-based, Murine; details: peptide 10 µg/mL, 72 h; for Cell viability, mean±SD: relative to untreated cells, n = 3, SD
Experimental: as §1
Cytotoxicity assessment was performed following the method described by Yang et al., with slight modifications. RAW 264.7 was seeded with 1 x 10^5 cells in a 96-well plate with an appropriate cell culture medium. After allowing the cells to attach, the medium was replaced with a fresh cell culture medium containing the peptide samples at a concentration of 10 µg/mL. The treated cells were incubated for an additional 72 h. At the designated time, fresh medium was added, which included 3-(4,5-dimethylthiazol-2-yl)-2,5-diphenyltetrazolium bromide (MTT) at a concentration of 0.5 mg/mL. After 3 h, formazan crystals were observed. The medium was then removed, and the crystals were dissolved in 100% dimethyl sulfoxide (DMSO). A microplate reader (Synergy HTX; Biotek, Multi-Mode Reader, Winooski, VT, USA) was utilized to measure the absorbance at 570 nm (measurement wavelength) and 630 nm (reference wavelength). The percentage of cell viability was calculated relative to untreated cells using the following equation (5):
Cellviability%=ODtreatment–ODblank/ODuntreated–ODblank×100 (5)
Where ODtreatment is the absorbance of the treated sample, ODuntreated is the absorbance of the untreated sample, and ODblank is the absorbance from wells without treated and untreated samples.

[6] = 10 µL sample + 190 µL FRAP solution, 15 min dark, 593 nm, FeSO4 standard curve, mean ± SD, n = 3, SD

Sequence | DPPH, mean±SD [1] | DPPH ([1]; replicate 1) [TE/mg protein] | DPPH ([1]; replicate 2) [TE/mg protein] | DPPH ([1]; replicate 3) [TE/mg protein] | ABTS, mean±SD [2] | ABTS ([2]; replicate 1) [TE/mg protein] | ABTS ([2]; replicate 2) [TE/mg protein] | ABTS ([2]; replicate 3) [TE/mg protein] | FRAP [3, 6] | FRAP ([3]; supplement tables, replicate 1) [mM FeSO4/mg protein] | FRAP ([3]; supplement tables, replicate 2) [mM FeSO4/mg protein] | FRAP ([3]; supplement tables, replicate 3) [mM FeSO4/mg protein] | Released NO (RAW 264.7 [4]; replicate 1) [µM] | Released NO (RAW 264.7 [4]; replicate 2) [µM] | Released NO (RAW 264.7 [4]; replicate 3) [µM] | Released NO, mean±SD (RAW 264.7 [4]) [µM] | Cell viability, mean±SD (RAW 264.7 [5]) [%] | Cell viability (RAW 264.7 [5]; replicate 1) [%] | Cell viability (RAW 264.7 [5]; replicate 2) [%] | Cell viability (RAW 264.7 [5]; replicate 3) [%]
GKNCGETVWE [P9, synthesized peptide identified from jellyfish fraction PUR20C] | 40.86±0.85^C TE/mg protein | 40.24 | 41.83 | 40.51 | 103.21±2.27^F TE/mg protein | 105.08 | 100.67 | 103.88 | 13.03±0.8^C mM FeSO4/mg protein | 13.31 | 13.73 | 12.05 | 35.86 | 36.20 | 34.82 | 35.63 ± 0.71 | 87.34 | 87.34 | 86.26 | 88.40
HSVLTASYRN [P5, synthesized peptide identified from jellyfish fraction PUR20C] | 3.20 TE/mg protein | 2.84 | 3.11 | 3.64 | 123.24±0.75^C TE/mg protein | 124.11 | 122.71 | 122.91 | 8.19 mM FeSO4/mg protein | 7.63 | 9.52 | 7.42 | 34.13 | 33.44 | 36.20 | 34.59 ± 1.43 | 87.58 | 92.44 | 89.27 | 81.01
KFNEVVYFL [P15, synthesized peptide identified from jellyfish fraction PUR20C] | 6.20±1.00^D TE/mg protein | 5.49 | 5.76 | 7.35 | 131.66±1.15^B TE/mg protein | 132.32 | 130.32 | 132.32 | 4.61±0.73^H mM FeSO4/mg protein | 3.84 | 4.68 | 5.31 | 32.75 | 32.75 | 34.82 | 33.44 | 87.22 | 87.87 | 85.58 | 88.22
